Source: PubChem BioAssay AID1996
In brackets after ≈: the same amount, converted by molar mass.

Conditions: buffer; pH 7.4; 200.0 µM

SMILES | solubility kinetic
CCCCC1CCC(C(=O)OC(C)C(=O)Nc2ccc(NC(C)=O)cc2)CC1 (centres undefined) | 9 µg/mL (≈ 23.2 µM)
Cl.Clc1ccccc1CN1CCNCC1 | > 37.1 µg/mL
C=CCn1c(SCC#N)nc2sc(CC)cc2c1=O | 7 µg/mL (≈ 24 µM)
CC(C)(C)N(Cc1cc2ccccc2[nH]c1=O)C(=O)c1ccco1 | 2.9 µg/mL (≈ 8.94 µM)
COc1ccc(-c2cnc3n2CCCCC3)cc1 | > 36.3 µg/mL
OC(CCNCCc1c[nH]c2ccccc12)C(F)(F)F (centres undefined) | 35.8 µg/mL (≈ 125 µM)
CCCNC(=O)c1noc2c1CCc1cc(OC)ccc1-2 | 5.6 µg/mL (≈ 19.6 µM)
O=C(Nc1ccccc1)Nc1cccc2ccccc12 | 0.3 µg/mL (≈ 1.14 µM)
Cc1ccc(N2C(=O)C3CCCN3C2=S)c(C)c1 (centres undefined) | > 39.1 µg/mL
Nn1c(SCC(=O)NC2CCS(=O)(=O)C2)nnc1-c1ccco1 (centres undefined) | > 53.6 µg/mL
Cc1sc2ncnc(Nc3ccc(O)cc3)c2c1C | 1.7 µg/mL (≈ 6.27 µM)
CCOc1ccc(-n2cnc3sc4c(c3c2=O)CCCC4)cc1 | 0.8 µg/mL (≈ 2.45 µM)
COc1ccc(C(=O)OCC(=O)c2ccc[nH]2)cc1 | 20.4 µg/mL (≈ 78.7 µM)
COc1cccc(-c2cc(C(=O)NC3CC3)c3ccccc3n2)c1 | 5.6 µg/mL (≈ 17.6 µM)
Cc1cc(=O)cc(C)n1-c1ccccc1Br | 39.8 µg/mL (≈ 143 µM)
CN(C)CCCNc1nc(N)c([N+](=O)[O-])c(NCc2ccccc2)n1 | 44.3 µg/mL (≈ 128 µM)
O=C(CC(c1ccccc1)c1cc(Cl)ccc1O)NCCCN1CCOCC1 (centres undefined) | 59.2 µg/mL (≈ 147 µM)
Nc1ncnc2nc[nH]c12 | > 20.3 µg/mL
Cc1ccc(NC(=O)c2ccc3c(c2)CCN3S(C)(=O)=O)cc1C | 2 µg/mL (≈ 5.81 µM)
Cc1cc(C(=O)COc2cccc([N+](=O)[O-])c2)c(C)n1C1CC1 | 6.2 µg/mL (≈ 19.7 µM)
Cc1cc(=O)oc2cc(Oc3ncccc3[N+](=O)[O-])ccc12 | 2 µg/mL (≈ 6.71 µM)
O=C(COC(=O)c1ccc(Br)o1)NCc1ccc2c(c1)OCO2 | 29.9 µg/mL (≈ 78.2 µM)
COc1nc(N)nc2nc[nH]c12 | > 24.8 µg/mL
C=CCn1cccc(C(=O)Nc2ccc(C)cc2)c1=O | 39.7 µg/mL (≈ 148 µM)

SMILES | solubility kinetic
CCCN1CCN(S(=O)(=O)c2ccc3c(c2)CCC(=O)N3)CC1 | > 50.6 µg/mL
Cc1cc(C)cc(NC(=O)C2CCN(S(C)(=O)=O)CC2)c1 | 38.8 µg/mL (≈ 125 µM)
CC(C)CCSc1nnc(N)s1 | > 30.5 µg/mL
Cc1ccc(C(=O)NCC(=O)N(C)Cc2cccc(F)c2)s1 | > 48.1 µg/mL
C=CCOn1c(=O)c(-c2ccc(Cl)cc2)[n+]([O-])c2ccccc21 | 0.8 µg/mL (≈ 2.43 µM)
CC(CNC(=O)c1ccccc1Cl)NC(=O)c1ccccc1Cl (centres undefined) | > 52.7 µg/mL
Cc1ccc(S(=O)(=O)N2CCN(C(=O)CCC(=O)Nc3ccc(F)cc3F)CC2)cc1 | > 67.7 µg/mL
Cc1cccc(NC(=O)c2cc[n+]([O-])cc2)c1C | > 36.3 µg/mL
COc1ccc(-c2nc(=S)c3c(n2Cc2cccnc2)CC(C)(C)OC3)cc1 | > 59 µg/mL
N#C/C(=C\c1ccc[nH]1)C(=O)Nc1ccccc1Cl | < 0.2 µg/mL
CC(C)OC(=O)NCCOC(=O)Nc1ccc(Cl)cc1 | 36.5 µg/mL (≈ 121 µM)
CN(c1ccc(OCC(=O)OCC(=O)Nc2ccc(OC(F)F)cc2)cc1)S(=O)(=O)c1cccs1 | 19.1 µg/mL (≈ 36.3 µM)
Cc1ccc(NC(=O)C[n+]2ccccc2)cc1C.[Cl-] | > 41.5 µg/mL
O=C(CCN=C1NS(=O)(=O)c2ccccc21)Nc1ccc(F)cc1Cl | > 57.3 µg/mL
COc1ccc(NS(=O)(=O)c2cccc(C(=O)O)c2)cc1S(=O)(=O)N1CCOCC1 | > 68.5 µg/mL
O=[N+]([O-])c1cc([N+](=O)[O-])c2nonc2c1Nc1ccccc1O | > 47.6 µg/mL
CC(=O)Oc1ccc2nc(-c3ccco3)oc(=O)c2c1 | 27.7 µg/mL (≈ 102 µM)
CCCCOc1nc(N2CCOCC2)nc(C)c1[N+](=O)[O-] | 1.5 µg/mL (≈ 5.06 µM)
O=C(N/C(=C/c1ccc(F)cc1)C(=O)N1CCCCC1)c1ccco1 | > 51.4 µg/mL
FC(F)(F)c1cccc(NC2=NCCCS2)c1 | 33.7 µg/mL (≈ 129 µM)
O=C(CSC(=S)N1CCOCC1)c1cc2ccccc2oc1=O | 7.4 µg/mL (≈ 21.2 µM)
COC(=O)c1sccc1NC(=O)Nc1ccc(OC)c(OC)c1 | > 50.5 µg/mL
O=C(O)c1cc(O)ccc1NC(=O)c1cccc2ccccc12 | > 46.1 µg/mL
Cc1sc2ncnc(SCC(=O)N(C(C)C)C(C)C)c2c1C | 1.6 µg/mL (≈ 4.74 µM)

SMILES | solubility kinetic
CC(O/N=C(\N)c1ccccc1)C(=O)Nc1cccc(C(F)(F)F)c1 (centres undefined) | > 52.7 µg/mL
CC(=O)c1cccc(CN2CCN(C3CCCC3)C(CCO)C2)c1 (centres undefined) | > 49.6 µg/mL
CN(C)c1ccc(/C=C/C(=O)c2cccnc2)cc1 | 9.5 µg/mL (≈ 37.7 µM)
O=C1CN(S(=O)(=O)c2ccc(F)cc2)c2ccccc2N1 | > 45.9 µg/mL
Cc1cc(C)c(C#N)c(Nc2cccc(Br)c2)n1 | < 0.2 µg/mL
Cc1ccsc1C(=O)OCc1cc(=O)n2ccsc2n1 | 6.3 µg/mL (≈ 20.6 µM)
COc1ccc(Cl)cc1NC(=O)c1cc(C)no1 | 5.7 µg/mL (≈ 21.4 µM)
O=C(O)CN(C1CCCCC1)S(=O)(=O)c1ccc(F)cc1 | > 47.3 µg/mL
O=S(=O)(Nc1ccncc1Cl)c1ccc2ccccc2c1 | 42.3 µg/mL (≈ 133 µM)
CN1C(=O)NC(c2ccc(O)cc2)C2=C1CN(c1ccccc1)C2=O (centres undefined) | 7 µg/mL (≈ 20.9 µM)
Cc1ccc(/C=C(\C#N)C(=O)Nc2cccc(C)n2)cc1 | < 0.2 µg/mL
S=C(NCc1cccc(Cl)c1)NCc1ccco1 | 29.9 µg/mL (≈ 106 µM)
CSc1ncccc1C(=O)OCCCC(=O)c1ccc(F)cc1 | 3.8 µg/mL (≈ 11.4 µM)
CCOc1ccc(C(=O)N2CCc3ccccc32)cc1OCC | 40.5 µg/mL (≈ 130 µM)
COCCNC(=O)C12CC3CC(CC(Cl)(C3)C1)C2 | > 40.8 µg/mL
Cc1cccc(C)c1NC(=O)COC(=O)c1ccccc1O | 3 µg/mL (≈ 10 µM)
COc1cccc(CNC(=O)COC(=O)/C=C/c2ccc(SC)cc2)c1 | 3.8 µg/mL (≈ 10.2 µM)
C[n+]1ccccc1/C=N/O.[Cl-] | > 25.9 µg/mL
O=S(=O)(c1ccc(Cl)cc1)N1CCc2ccccc21 | 6.1 µg/mL (≈ 20.8 µM)
CC(=O)N[C@@H](CC(=O)O)C(=O)O | > 26.3 µg/mL
Cc1ccccc1NC(=O)c1cccc(NC(=O)c2ccco2)c1 | > 48.1 µg/mL
N#Cc1c2n(c3c(N)ncnc13)CCCCC2 | 33.6 µg/mL (≈ 148 µM)
S=C(NCc1ccco1)N1CCN(C/C=C/c2ccccc2)CC1 | > 51.2 µg/mL
Cc1ccc(NC(=O)Nc2ccno2)cc1 | > 32.6 µg/mL

SMILES | solubility kinetic
CCOc1ccccc1Nc1nnc(SCC(=O)NCC2CCCO2)s1 (centres undefined) | > 59.2 µg/mL
Cc1cccc(OC(C)C(=O)Nc2nc(-c3ccncc3)cs2)c1 (centres undefined) | 3.4 µg/mL (≈ 10 µM)
CC(C(Sc1ccccc1N)c1ccccc1)[N+](=O)[O-] (centres undefined) | 15.1 µg/mL (≈ 52.4 µM)
CCOC(=O)c1cc(-c2csc(-c3ccc(C(F)(F)F)cc3)n2)on1 | < 0.4 µg/mL
Cc1cc(N2CCN(C(=O)/C=C/C(=O)O)CC2)c2ccccc2n1 | 48.6 µg/mL (≈ 149 µM)
COc1ccc(CNC(=O)COC(=O)/C=C/c2cccc(Cl)c2)cc1 | 3.3 µg/mL (≈ 9.17 µM)
COc1ccc(CC(C)Nc2cccc(F)c2)cc1 (centres undefined) | 1 µg/mL (≈ 3.86 µM)
O=C(COC(=O)CCC1CCCC1)Nc1ccccc1OC(F)F | 9.7 µg/mL (≈ 28.4 µM)
COc1ccccc1CC1CC(=O)N(c2ccccc2)C1=O (centres undefined) | > 44.3 µg/mL
Cc1ccc(C)c(Nc2nc(-c3ccncc3)nc3ccccc23)c1 | < 0.2 µg/mL
CC1(C)Cc2nc3sc(C(=O)NCCCO)c(N)c3cc2CO1 | > 50.3 µg/mL
CCOc1ccc(NC(=O)CN2C(=O)NC3(CCCCCC3)C2=O)cc1 | > 53.9 µg/mL
Cc1ccc(NC(=O)Cc2cccs2)cc1Cl | 6.1 µg/mL (≈ 23 µM)
Cc1nnc(SCC(=O)Nc2ccc(F)cc2)n(N)c1=O | > 46.4 µg/mL
CC(C(c1cccs1)c1c(N)n(C)c(=O)n(C)c1=O)[N+](=O)[O-] (centres undefined) | > 48.7 µg/mL
CCCc1cc(=O)oc2cc(OCC(=O)N3CCC(C(N)=O)CC3)ccc12 | > 55.9 µg/mL
Cc1cc(NC(=O)COC(=O)C2CC(=O)N(c3ccccc3)C2)no1 (centres undefined) | > 51.5 µg/mL
NC(Cc1ccc(OC(F)F)cc1)C(=O)O (centres undefined) | 32.7 µg/mL (≈ 141 µM)
Cc1nn(C)c(NC(=O)c2ccccc2Cl)c1Br | > 49.3 µg/mL
NS(=O)(=O)c1ccc(CNC(=O)c2ccncc2)cc1 | > 43.7 µg/mL
CN1C(=O)/C(=C/c2cn(CC(=O)N3CCCCC3)c3ccccc23)NC1=S | 2.7 µg/mL (≈ 7.06 µM)
CCOC(=O)/C=C/C(=O)OCC(=O)Nc1ccc(Cl)cc1Cl | 8.8 µg/mL (≈ 25.4 µM)
CCCc1nc(SCC(=O)NC2CCCC2)c2ccccc2n1 | 1.9 µg/mL (≈ 5.77 µM)
Cc1cc(=O)oc(C)c1C(=O)NCCN(C)Cc1ccccc1 | > 47.2 µg/mL

SMILES | solubility kinetic
Cc1ccc(S(=O)(=O)N2CCN(CC(=O)N3CCCC3)CC2)c(C)c1 | > 54.8 µg/mL
Cn1cccc1/C=N\NC(=O)C1COc2ccccc2O1 (centres undefined) | > 42.8 µg/mL
O=c1c2ccccc2nc(/C=C/c2ccccc2O)n1-c1ccccc1O | 30.8 µg/mL (≈ 86.4 µM)
CCn1c(SCC(=O)O)nc2ccccc21 | > 35.4 µg/mL
CN(C)CCOC(=O)c1ccc2[nH]c3c(c2c1)CSCC3.Cl | 49.2 µg/mL
O=C(CSc1ccc([N+](=O)[O-])cn1)Nc1nccs1 | 1.9 µg/mL (≈ 6.41 µM)
COc1cccc(C(=O)NCCNC(=O)c2ccc(C)nc2)c1 | 45.7 µg/mL (≈ 146 µM)
O=C(c1ccsc1)N1CCCC(N2CCOCC2)C1 (centres undefined) | > 42.1 µg/mL
CC12CC3(C)CC(C)(C1)CC(C(=O)NCc1cccnc1)(C2)C3 | > 46.9 µg/mL
Nc1nc(SCC(=O)N2CCOCC2)[nH]c(=O)c1-c1ccccc1 | > 52 µg/mL
CCc1cccc(CC)c1-n1c(SCC(=O)N2CCc3ccccc32)nc(O)cc1=O | 60 µg/mL (≈ 138 µM)
CCOCCCNC(=O)/C(C#N)=C/c1cc(C)c(O)c(C)c1 | 7 µg/mL (≈ 23.2 µM)
C[C@H](NC(=O)c1ccco1)C(=O)Nc1ccc(C#N)cc1 | > 42.5 µg/mL
CC1CCCC(C)N1C(=O)COC(=O)c1cc(=O)[nH]c2ccccc12 (centres undefined) | > 51.4 µg/mL
COc1ccc(NC(=O)c2ccc[n+]([O-])c2)cc1 | > 36.6 µg/mL
Cc1nc2ccsc2c(=O)n1-c1ccccc1Cl | > 41.5 µg/mL
CCCCc1cc(=O)oc2cc(OCC(=O)N3CCOCC3)ccc12 | 19.2 µg/mL (≈ 55.6 µM)
COC(=O)c1[nH]c2cccc(OC)c2c1NC(=O)CCN1CCSCC1 | 54.6 µg/mL (≈ 145 µM)
Cc1c(C(=O)Nc2nccs2)oc2ccc(F)cc12 | 3.1 µg/mL (≈ 11.2 µM)
COc1ccc(Cl)cc1S(=O)(=O)NC(C)C(=O)NCc1ccccn1 (centres undefined) | 52.8 µg/mL (≈ 138 µM)
Cc1ccc(NC(=S)NCC(C)CSc2ccc(Cl)cc2)cc1 (centres undefined) | 1.1 µg/mL (≈ 3.01 µM)
COC(=O)c1ccsc1NC(=O)CS(=O)(=O)c1ccccc1 | > 50.9 µg/mL
COC(=O)c1sccc1NC(=O)c1c(F)c(F)c(F)c(F)c1F | < 0.8 µg/mL
